{
  "source": "patent US9181188B2",
  "about": "“Aryl ureas as kinase inhibitors” (Bayer Healthcare LLC, priority 2002, dated 2015)",
  "data": [
    {"smiles": "CNC(=O)c1cc(Oc2ccc(NC(=O)Nc3ccc(Cl)c(C(F)(F)F)c3)cc2)cc[n+]1[O-]", "note": "[Example 1, N-[4-chloro-3-(trifluoromethyl)phenyl]-N′-{4-[2-(N-methylcarbamoyl)-1-oxo-(4-pyridyloxy)]phenyl}urea]", "values": [
      {"measurement": "melting point", "result": "232 to 234", "unit": "°C"}
    ]}
  ]
}
